Laboratory results taken from patent US20070077283A1, “METHOD OF ENHANCING TRANSMUCOSAL DELIVERY OF THERAPEUTIC COMPOUNDS” (Nastech Pharmaceutical Company Inc., priority 2005, published 2007).

Tests used:
[1] = system: human-derived tracheal/bronchial epithelial cells (EpiAirway Tissue Model); assay: Transepithelial electrical resistance (TER) of an epithelial cell monolayer; type: cell-based; settings: for activity at 1000 µM: Homo sapiens, Epithelial cell, 1 h, read-out: Mean % of Original TER Value
Experimental: Inserts are feed for each day of recovery. TER measurements were accomplished using the Endohm-12 Tissue Resistance Measurement Chamber connected to the EVOM Epithelial Voltohmmeter (World Precision Instruments, Sarasota, Fla.) with the electrode leads. The electrodes and a tissue culture blank insert were equilibrated for at least 20 minutes in MatTek medium with the power off prior to checking calibration. The background resistance was measured with 1.5 ml media in the Endohm tissue chamber and 300 μl media in the blank insert. The top electrode was adjusted so that it was close to, but not making contact with, the top surface of the insert membrane. Background resistance of the blank insert was about 5-20 ohms. […] TER values are a function of the surface area of the tissue. […] By this method of calculation, TER will be expressed as both Ohms*cm2 and percent original TER value. […] Several different lipid types (see Table 1) were screened to select for lipids that are capable of enhancing the permeation of a biological agent across an epithelial cell monolayer. […] A reduction in TER correlates with the ability to enhance the permeation of a molecule and biological agent across an epithelia.

[2] = system: human-derived tracheal/bronchial epithelial cells (EpiAirway Tissue Model); assay: in vitro
Experimental: Normal, human-derived tracheal/bronchial epithelial cells will serve as the model cell system for assessing the lipids listed in Table 1. The cells are supplied by MatTek Corp. (Ashland, Mass.) as the EpiAirway™ Tissue Model. The cells are provided as a confluent monolayer on a Millipore Milicell-CM cell culture insert with a pore size of 0.4 μM, inner diameter of 0.8 cm and surface area of 0.6 cm^2 and comprised of transparent hydrophilic Teflon (PTFE). Upon receipt, the membranes are cultured in 1 ml basal media (phenol red-free and hydrocortisone-free Dulbecco's Modified Eagle's Media (DMEM) at 37° C./5% CO2 for 24-48 hours before use. Inserts are feed for each day of recovery.
The amount of cell death was assayed by measuring the loss of lactate dehydrogenase (LDH) from the cells using a CytoTox 96 Cytotoxicity Assay Kit (Promega Corp., Madison, Wis.). A treatment of 1% Octylphenolpoly(ethyleneglycolether)x (Triton X-100™) diluted in PBS was used as a lysis control. One percent Triton X-100™ mediated cell lysis was normalized to 100%. For basal-lateral LDH levels, triplicates of 50 μl of the basal media were loaded into a 96-well assay plate. For apical LDH levels, 150 μl of Epi-Cm was added to the apical side of each chamber and mixed by pipeting. One hundred and fifty microliters was then removed and diluted 2-fold prior to performing the LDH assay. All apical LDH assay were performed in triplicate and with 50 μl of the diluted test solution. Fresh, cell-free culture medium will be used as a blank. Total LDH levels were determined by lysing cells in a final concentration of 0.9% Triton-X100™. Fifty microliters of substrate solution was added to each well and the plates incubated for 30 minutes at room temperature in the dark. Following incubation, 50 μl of stop solution was added to each well and the plates read on an optical density plate reader at […]. Cytotoxicity was expressed as a percentage calculated by subtracting the average absorbance of the PBS control wells as the endogenously released LDH level and expressing that value relative to the average Triton-X100 control, which represents total LDH content. [formula] Osmolality
For the instant application, phosphate buffered saline (PBS) served as a negative control for both the TER assay and LDH (cytotoxicity) assay. […] TER measurements and LDH levels were taken immediately after a one hour treatment of the cultured cells with each lipid, unless specified otherwrise.
TER reduction was expressed as the percent decrease in TER value from time zero to one hour post-treatment. Thus, greater percent reduction in TER represents less electrical resistance across the epithelial cell monolayer and consequently greater epithelial cell permeation. Cytotoxicity (LDH levels) for each lipid was expressed as a percent of the LDH levels measured after Triton-X100 treatment of the cells. Triton-X100™ LDH levels were normalized to 100%.

[3] = system: human-derived tracheal/bronchial epithelial cells (EpiAirway Tissue Model); assay: FITC-Dextran permeation assay across epithelial cell monolayer; type: cell-based; settings: for Mean % FD3 Permeation: FITC-dextran 3000 (Table 4); for permeation of FD3 relative to negative controls: text summary of Table 4
Experimental: Each tissue insert was placed in an individual well containing 1 ml of MatTek basal media. On the apical surface of the inserts, 20 μl of test formulation was applied according to study design, and the samples were placed on a shaker (˜100 rpm) for 1.5 hours at 37° C. FITC-labeled dextran solution was added to inserts apically and a fluorescence measurement was taken from the basolateral media after the incubation period. Two hundred microliters of the basal media for each test formulation was transferred to a dark-wall fluorescent reading plate. Each test formulation was tested in triplicate. Fluorescent intensity was measured at 470 nM with the microplate fluorescence reader FLx800 (Bio-Tek Instruments, Inc., Winooski, Vt.). A FITC labeled dextran with a molecular weight of 3 kDA, 10 kDA, 20 kDA, 40 kDA, 70 kDA and/or 500 kDA was used to assess the ability of individual lipids to deliver a model protein across an epithelia.
Permeation is expressed as percent permeation and was calculated as follows: [formula] [formula] Terms
PBS and 0.3% Triton-X100™ served as […]. […] FD permeation was presented as the percent of FD that crossed from the apical side of the epithelial cell monolayer to the basolateral cell surface.

[4] = lipid 1000 μM, lower value = greater TER reduction (Table 4)
[5] = lipid 1000 μM, percent decrease in TER from time zero
[6] = lipid 125 μM, percent of Triton-X100 LDH levels
[7] = lipid 250 μM, percent of Triton-X100 LDH levels
[8] = lipid 500 μM, percent of Triton-X100 LDH levels
[9] = lipid 1000 μM, percent of Triton-X100 LDH levels
[10] = positive controls, concentration N/A (Special Sauce; 0.3% Triton-X100)
[11] = positive controls: Special Sauce 1X, 1% Triton (Table 4)

CCCCCCCC/C=C\CCCCCCCC(=O)O[C@H](COCCCCCCCCCCCCCCCC)COP(=O)([O-])OCC[N+](C)(C)C [C16-18:1 PC, 1-O-Hexadecyl-2-Oleoyl-sn-Glycero-3-Phosphocholine]
activity at 1000 µM [1, 4]: 86%
Mean % Relative Cytotoxic Effect (LDH) ([2]; human, 1 h, 1000 μM): −2%
Mean % FD3 Permeation ([3]; lipid 1000 μM): 0%

1-Alkyl-2-Hydroxy-sn-Glycero-3-Phosphocholine [Lyso-Platelet-Activation Factor]
Mean TER Reduction 1 hr. Post-treatment ([1]; lipid 62.5 μM): 48%
Mean TER Reduction 1 hr. Post-treatment ([1]; lipid 125 μM): 23%
Mean TER Reduction 1 hr. Post-treatment ([1]; lipid 250 μM): 29%
Mean TER Reduction 1 hr. Post-treatment ([1]; lipid 500 μM): 61%
Mean TER Reduction 1 hr. Post-treatment [1, 5]: 84%
Cytotoxic Effect (LDH) 1 hr. Post-treatments ([2]; lipid 62.5 μM, percent of Triton-X100 LDH levels): 2%
Cytotoxic Effect (LDH) 1 hr. Post-treatments [2, 6]: 3%
Cytotoxic Effect (LDH) 1 hr. Post-treatments [2, 7]: 6%
Cytotoxic Effect (LDH) 1 hr. Post-treatments [2, 8]: 22%
Cytotoxic Effect (LDH) 1 hr. Post-treatments [2, 9]: 34%

CC/C=C\C/C=C\C/C=C\C/C=C\C/C=C\C/C=C\CCC(=O)O[C@H](COCCCCCCCCCCCCCCCC)COP(=O)([O-])OCC[N+](C)(C)C [C16-22:6 PC, 1-O-Hexadecyl-2-Docosahexaenoyl-sn-Glycero-3-Phosphocholine]
Mean % of Original TER Value [1, 4]: 97%
Mean % Relative Cytotoxic Effect (LDH) ([2]; lipid 1000 μM (Table 4)): −1%
Mean % FD3 Permeation ([3]; lipid 1000 μM): 0%

CCCCC/C=C\C/C=C\C/C=C\C/C=C\CCCC(=O)O[C@H](COCCCCCCCCCCCCCCCC)COP(=O)([O-])OCC[N+](C)(C)C [C16-20:4 PC, 1-O-Hexadecyl-2-Arachidonoyl-sn-Glycero-3-Phosphocholine]
activity at 1000 µM [1, 4]: 96%
Mean % Relative Cytotoxic Effect (LDH) ([2]; human, 1 h, 1000 μM): 0%
Mean % FD3 Permeation ([3]; lipid 1000 μM): 0%

CCCCCCCCCCCCCCCCCCOC[C@H](COP(=O)([O-])OCC[N+](C)(C)C)OC(=O)CCC [C18-04:0 PC, 1-O-Octadecyl-2-Butyroyl-sn-Glycero-3-Phosphocholine]
activity at 1000 µM [1, 4]: 85%
Mean % Relative Cytotoxic Effect (LDH) ([2]; human, 1 h, 1000 μM): −3%
Mean % FD3 Permeation ([3]; lipid 1000 μM): 0%

1,3-Di(3-sn-Phosphatidyl)-sn-Glycerol Disodium Salt [Cardiolipin (sodium salt)]
Mean TER Reduction 1 hr. Post-treatment [1, 5]: 32%
Cytotoxic Effect (LDH) 1 hr. Post-treatments [2, 9]: 21%

CCCCCCCCCCCCC/C=C/[C@@H](O)[C@@H](N)CO[C@@H]1O[C@H](CO)[C@@H](O[C@@H]2O[C@H](CO)[C@H](O)[C@H](O)[C@H]2O)[C@H](O)[C@H]1O [Lactosyl(β) Sphingosine, D-Lactosyl-β1-1′-D-erythro-Sphingosine]
Mean TER Reduction 1 hr. Post-treatment [1, 5]: 95%
Cytotoxic Effect (LDH) 1 hr. Post-treatments [2, 9]: 14%
% FITC-Dextran Permeation FD10 ([3]; lipid 1000 μM): 5%
% FITC-Dextran Permeation FD40 ([3]; lipid 1000 μM): 2%
% FITC-Dextran Permeation FD3 ([3]; lipid 1000 μM (Table 5)): 8%

CCCCCCCCCCCCCCCCOC[C@H](COP(=O)([O-])OCC[N+](C)(C)C)OC(=O)CCC [C16-04:0 PC, 1-O-Hexadecyl-2-Butyroyl-sn-Glycero-3-Phosphocholine]
activity at 1000 µM [1, 4]: 0%
Mean % Relative Cytotoxic Effect (LDH) ([2]; human, 1 h, 1000 μM): 22%
Mean % FD3 Permeation ([3]; lipid 1000 μM): 7%
permeation of FD3 relative to negative controls [3]: enhanced the permeation of FD3 above that of the negative controls

Octylphenolpoly(ethyleneglycolether)x [Triton-X100, reference compound]
% of the original TER value ([1]; controls of the further test of lipids at 250 μM to 1000 μM (b219-b220)): −6%
Mean TER Reduction 1 hr. Post-treatment [1, 10]: 100%
Mean % of Original TER Value [1, 11]: −7%
% Relative Cytotoxic Effect (LDH) ([2]; in the presence of FITC-Dextran FD3 (Table 6)): 99%
Cytotoxic Effect (LDH) 1 hr. Post-treatments [2, 10]: 100%
Mean % Relative Cytotoxic Effect (LDH) [2, 11]: 100%
% Cytotoxicity ([2]; treatment alone, no lipid, apical LDH release (Table 8), Triton 0.3%): 100%

CC/C=C\C/C=C\C/C=C\C/C=C\C/C=C\CCCC(=O)O[C@H](COCCCCCCCCCCCCCCCC)COP(=O)([O-])OCC[N+](C)(C)C [C16-20:5 PC, 1-O-Hexadecyl-2-Eicosapentaenoyl-sn-Glycero-3-Phosphocholine]
Mean % of Original TER Value [1, 4]: 90%
Mean % Relative Cytotoxic Effect (LDH) ([2]; lipid 1000 μM (Table 4)): −1%
Mean % FD3 Permeation ([3]; lipid 1000 μM): 0%

CCCCCCCCCCCCC/C=C/[C@@H](O)[C@@H](N)CO[C@@H]1O[C@H](CO)[C@H](O)[C@H](O)[C@H]1O [Galactosyl sphingosine, D-Galactosyl-β1-1′-D-erythro-Sphingosine]
Mean TER Reduction 1 hr. Post-treatment ([1]; lipid 125 μM): 36%
Mean TER Reduction 1 hr. Post-treatment ([1]; lipid 250 μM): 43%
Mean TER Reduction 1 hr. Post-treatment ([1]; lipid 500 μM): 42%
Mean TER Reduction 1 hr. Post-treatment [1, 5]: 91%
Cytotoxic Effect (LDH) 1 hr. Post-treatments [2, 6]: 2%
Cytotoxic Effect (LDH) 1 hr. Post-treatments [2, 7]: 3%
Cytotoxic Effect (LDH) 1 hr. Post-treatments [2, 8]: 2%
Cytotoxic Effect (LDH) 1 hr. Post-treatments [2, 9]: 26%

1-Alkyl-2-Acetoyl-sn-Glycero-3-Phosphocholine [Platelet-Activation Factor]
Mean TER Reduction 1 hr. Post-treatment [1, 5]: 35%
Cytotoxic Effect (LDH) 1 hr. Post-treatments [2, 9]: 19%

CCCCCCCCCCCCCCCCOC[C@H](COP(=O)([O-])OCC[N+](C)(C)C)OC(=O)NC [C-PAF, 1-O-Hexadecyl-2-N-Methylcarbamyl-sn-Glycero-3-Phosphocholine]
Mean % of Original TER Value ([1]; lipid 500 μM (Table 4)): 10%
Mean % of Original TER Value [1, 4]: 2%
Mean % Relative Cytotoxic Effect (LDH) ([2]; lipid 500 μM (Table 4)): 11%
Mean % Relative Cytotoxic Effect (LDH) ([2]; lipid 1000 μM (Table 4)): 15%
Mean % FD3 Permeation ([3]; lipid 500 μM): 11%
Mean % FD3 Permeation ([3]; lipid 1000 μM): 12%
permeation of FD3 relative to negative controls [3]: enhanced the permeation of FD3 above that of the negative controls

CCCCCCCCCCCCC/C=C/[C@@H](O)[C@H](COP(=O)(O)O)NC(C)=O.N [N-acetoyl ceramide-1-phosphate, (2S,3R,4E)-2-Acetoylaminooctadec-4-Ene-1,3-Diol-1-Phosphate (Ammonium Salt)]
Mean TER Reduction 1 hr. Post-treatment ([1]; lipid 125 μM): 24%
Mean TER Reduction 1 hr. Post-treatment ([1]; lipid 250 μM): 23%
Mean TER Reduction 1 hr. Post-treatment ([1]; lipid 500 μM): 29%
Mean TER Reduction 1 hr. Post-treatment [1, 5]: 42%
Cytotoxic Effect (LDH) 1 hr. Post-treatments [2, 6]: 2%
Cytotoxic Effect (LDH) 1 hr. Post-treatments [2, 7]: 2%
Cytotoxic Effect (LDH) 1 hr. Post-treatments [2, 8]: 2%
Cytotoxic Effect (LDH) 1 hr. Post-treatments [2, 9]: 2%
